# Data reported in PubChem BioAssay (NCI).
#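 Five compound concentrations were applied to cells in 96-well plates for 48 hours; endpoints were derived by simple linear interpolation of the resulting dose-response curve. GI50 = concentration required for 50% inhibition of growth. TGI is the concentration that stops growth completely.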
# Key:
# Test in all cases: NCI-60 cell line screen, 48 h
# NCI-H460 lung = tested on: NCI-H460 lung
# SK-MEL-28 melanoma = tested on: SK-MEL-28 melanoma
# U251 CNS = tested on: U251 CNS
# HOP-62 NSCLC = tested on: HOP-62 NSCLC
# 786-0 renal = tested on: 786-0 renal
# A549 NSCLC = tested on: A549 NSCLC
# A498 renal = tested on: A498 renal
# SK-MEL-2 melanoma = tested on: SK-MEL-2 melanoma
# HCT-116 colon = tested on: HCT-116 colon
# HT29 colon = tested on: HT29 colon
# OVCAR-4 ovarian = tested on: OVCAR-4 ovarian
# MDA-MB-435 = tested on: MDA-MB-435
# TK-10 renal = tested on: TK-10 renal
# HL-60(TB) leukemia = tested on: HL-60(TB) leukemia
# UACC-257 melanoma = tested on: UACC-257 melanoma
# MOLT-4 leukemia = tested on: MOLT-4 leukemia
# OVCAR-8 ovarian = tested on: OVCAR-8 ovarian
# CAKI-1 renal = tested on: CAKI-1 renal
# NCI-H23 lung = tested on: NCI-H23 lung
# LOX IMVI melanoma = tested on: LOX IMVI melanoma
# M14 melanoma = tested on: M14 melanoma
# SF-295 CNS = tested on: SF-295 CNS
# SNB-19 CNS = tested on: SNB-19 CNS
# NCI/ADR-RES ovarian = tested on: NCI/ADR-RES ovarian
# SW-620 colon = tested on: SW-620 colon
# SNB-75 CNS = tested on: SNB-75 CNS
# ACHN renal = tested on: ACHN renal
# KM12 colon = tested on: KM12 colon
# COLO 205 colon = tested on: COLO 205 colon
# SR leukemia = tested on: SR leukemia
# UACC-62 melanoma = tested on: UACC-62 melanoma
# MCF7 breast = tested on: MCF7 breast
# PC-3 prostate = tested on: PC-3 prostate
# OVCAR-5 ovarian = tested on: OVCAR-5 ovarian
# RXF 393 renal = tested on: RXF 393 renal
# IGROV1 ovarian = tested on: IGROV1 ovarian
# EKVX NSCLC = tested on: EKVX NSCLC
# MALME-3M melanoma = tested on: MALME-3M melanoma
# SK-MEL-5 melanoma = tested on: SK-MEL-5 melanoma
# BT-549 breast = tested on: BT-549 breast
# HCT-15 colon = tested on: HCT-15 colon
# CCRF-CEM leukemia = tested on: CCRF-CEM leukemia
# NCI-H522 lung = tested on: NCI-H522 lung
# SF-268 CNS = tested on: SF-268 CNS
# UO-31 renal = tested on: UO-31 renal
# MDA-MB-468 breast = tested on: MDA-MB-468 breast
# RPMI-8226 leukemia = tested on: RPMI-8226 leukemia
# HCC-2998 colon = tested on: HCC-2998 colon
# T-47D breast = tested on: T-47D breast
# MDA-MB-231 breast = tested on: MDA-MB-231 breast
# SF-539 CNS = tested on: SF-539 CNS
# K-562 leukemia = tested on: K-562 leukemia
# NCI-H226 lung = tested on: NCI-H226 lung
# SN12C renal = tested on: SN12C renal
# HOP-92 NSCLC = tested on: HOP-92 NSCLC
# SK-OV-3 ovarian = tested on: SK-OV-3 ovarian
# DU-145 prostate = tested on: DU-145 prostate
# HS 578T breast = tested on: HS 578T breast
# OVCAR-3 ovarian = tested on: OVCAR-3 ovarian
structure (smiles),measurement,setting,value
Clc1cccc(N/N=C/c2c[nH]c3ccccc23)n1,GI50,NCI-H460 lung,11.5 µM
same,TGI,NCI-H460 lung,28.8 µM
same,GI50,SK-MEL-28 melanoma,14.5 µM
same,TGI,SK-MEL-28 melanoma,27.6 µM
same,GI50,U251 CNS,10.7 µM
same,TGI,U251 CNS,25.8 µM
same,GI50,HOP-62 NSCLC,10 µM
same,TGI,HOP-62 NSCLC,22.3 µM
same,GI50,786-0 renal,11.1 µM
same,TGI,786-0 renal,24.2 µM
same,GI50,A549 NSCLC,13.2 µM
same,TGI,A549 NSCLC,38.2 µM
same,GI50,A498 renal,18.7 µM
same,TGI,A498 renal,34 µM
same,GI50,SK-MEL-2 melanoma,12.9 µM
same,TGI,SK-MEL-2 melanoma,25.9 µM
same,GI50,HCT-116 colon,12.1 µM
same,TGI,HCT-116 colon,25.2 µM
same,GI50,HT29 colon,15 µM
same,TGI,HT29 colon,31.8 µM
same,GI50,OVCAR-4 ovarian,10.5 µM
same,TGI,OVCAR-4 ovarian,29 µM
same,GI50,MDA-MB-435,2.46 µM
same,TGI,MDA-MB-435,12 µM
same,GI50,TK-10 renal,19.5 µM
same,TGI,TK-10 renal,42.3 µM
same,GI50,HL-60(TB) leukemia,1.28 µM
same,TGI,HL-60(TB) leukemia,13.9 µM
same,GI50,UACC-257 melanoma,11.6 µM
same,TGI,UACC-257 melanoma,24 µM
same,GI50,MOLT-4 leukemia,1.55 µM
same,TGI,MOLT-4 leukemia,21.9 µM
same,GI50,OVCAR-8 ovarian,8.12 µM
same,TGI,OVCAR-8 ovarian,21 µM
same,GI50,CAKI-1 renal,2.23 µM
same,TGI,CAKI-1 renal,19.1 µM
same,GI50,NCI-H23 lung,12.5 µM
same,TGI,NCI-H23 lung,26.3 µM
same,GI50,LOX IMVI melanoma,3.32 µM
same,TGI,LOX IMVI melanoma,17 µM
same,GI50,M14 melanoma,11.9 µM
same,TGI,M14 melanoma,25.4 µM
same,GI50,SF-295 CNS,11.4 µM
same,TGI,SF-295 CNS,23.5 µM
same,GI50,SNB-19 CNS,12.7 µM
same,TGI,SNB-19 CNS,30.8 µM
same,GI50,NCI/ADR-RES ovarian,2.98 µM
same,TGI,NCI/ADR-RES ovarian,16.5 µM
same,GI50,SW-620 colon,13.3 µM
same,TGI,SW-620 colon,28 µM
same,GI50,SNB-75 CNS,0.141 µM
same,TGI,SNB-75 CNS,5 µM
same,GI50,ACHN renal,10.5 µM
same,TGI,ACHN renal,33.6 µM
same,GI50,KM12 colon,9.78 µM
same,TGI,KM12 colon,26.9 µM
same,GI50,COLO 205 colon,13.8 µM
same,TGI,COLO 205 colon,28.8 µM
same,GI50,SR leukemia,2.93 µM
same,TGI,SR leukemia,19.3 µM
same,GI50,UACC-62 melanoma,10.3 µM
same,TGI,UACC-62 melanoma,22 µM
same,GI50,MCF7 breast,2.67 µM
same,TGI,MCF7 breast,16.4 µM
same,GI50,PC-3 prostate,2.98 µM
same,TGI,PC-3 prostate,26.6 µM
same,GI50,OVCAR-5 ovarian,11 µM
same,TGI,OVCAR-5 ovarian,23.7 µM
same,GI50,RXF 393 renal,2.84 µM
same,TGI,RXF 393 renal,18.1 µM
same,GI50,IGROV1 ovarian,1.37 µM
same,TGI,IGROV1 ovarian,6.92 µM
same,GI50,EKVX NSCLC,1.97 µM
same,TGI,EKVX NSCLC,16.8 µM
same,GI50,MALME-3M melanoma,7.33 µM
same,TGI,MALME-3M melanoma,20.8 µM
same,GI50,SK-MEL-5 melanoma,8.61 µM
same,TGI,SK-MEL-5 melanoma,21 µM
same,GI50,BT-549 breast,0.245 µM
same,TGI,BT-549 breast,11 µM
same,GI50,HCT-15 colon,8.1 µM
same,TGI,HCT-15 colon,21.5 µM
same,GI50,CCRF-CEM leukemia,0.307 µM
same,TGI,CCRF-CEM leukemia,19.4 µM
same,GI50,NCI-H522 lung,1.03 µM
same,TGI,NCI-H522 lung,12.4 µM
same,GI50,SF-268 CNS,2.99 µM
same,TGI,SF-268 CNS,25.9 µM
same,GI50,UO-31 renal,1.21 µM
same,TGI,UO-31 renal,14.1 µM
same,GI50,MDA-MB-468 breast,1.89 µM
same,TGI,MDA-MB-468 breast,5.01 µM
same,GI50,RPMI-8226 leukemia,0.83 µM
same,TGI,RPMI-8226 leukemia,14.5 µM
same,GI50,HCC-2998 colon,12 µM
same,TGI,HCC-2998 colon,24.6 µM
same,GI50,T-47D breast,4.04 µM
same,TGI,T-47D breast,19 µM
same,GI50,MDA-MB-231 breast,1.37 µM
same,TGI,MDA-MB-231 breast,9.57 µM
same,GI50,SF-539 CNS,1.47 µM
same,TGI,SF-539 CNS,11.9 µM
same,GI50,K-562 leukemia,1.94 µM
same,TGI,K-562 leukemia,41 µM
same,GI50,NCI-H226 lung,1.65 µM
same,TGI,NCI-H226 lung,17.2 µM
same,GI50,SN12C renal,2.28 µM
same,TGI,SN12C renal,11.7 µM
same,GI50,HOP-92 NSCLC,5.32 µM
same,TGI,HOP-92 NSCLC,20.7 µM
same,GI50,SK-OV-3 ovarian,2.39 µM
same,TGI,SK-OV-3 ovarian,16.8 µM
same,GI50,DU-145 prostate,13 µM
same,TGI,DU-145 prostate,26 µM
same,GI50,HS 578T breast,4.17 µM
same,TGI,HS 578T breast,27.8 µM
same,GI50,OVCAR-3 ovarian,3.85 µM
same,TGI,OVCAR-3 ovarian,19.3 µM
